Results taken from patent EP4119547A1, “TRIAZOLE COMPOUNDS FOR THE CONTROL OF INVERTEBRATE PESTS” (priority 2021, dated 2023).

Legend:
Assay type in all cases: in vivo
[1] = test system: Tobacco budworm (Heliothis virescens); test: Tobacco budworm test, insect diet with eggs in 96-well microtiter plates; details: 120 h, egg and larval mortality, 5 days, read-out: mortality in comparison with untreated controls
Procedure: For evaluating control of tobacco budworm (Heliothis virescens), the test unit consisted of 96-well-microtiter plates containing an insect diet and 15-25 H. virescens eggs.
The compounds were formulated using a solution containing 75% v/v water and 25% v/v DMSO. Different concentrations of formulated compounds were sprayed onto the insect diet at 10 µl, using a custom-built micro atomizer, at two replications.
After application, microtiter plates were incubated at about 28 ± 1°C and about 80 ± 5 % relative humidity for 5 days. Egg and larval mortality was then visually assessed.

[2] = test system: Yellow fever mosquito (Aedes aegypti); test: whole plant or invertebrate; details: 48 h, larval mortality, 2 days, read-out: mortality in comparison with untreated controls
Procedure: For evaluating control of yellow fever mosquito (Aedes aegypti) the test unit consisted of 96-well-microtiter plates containing 200µl of tap water per well and 5-15 freshly hatched A. aegypti larvae.
The active compounds were formulated using a solution containing 75% (v/v) water and 25% (v/v) DMSO. Different concentrations of formulated compounds or mixtures were sprayed onto the insect diet at 2.5µl, using a custom-built micro atomizer, at two replications.
After application, microtiter plates were incubated at 28 ± 1°C, 80 ± 5 % RH for 2 days. Larval mortality was then visually assessed.

[3] = test system: Diamond back moth (Plutella xylostella); test: Diamond back moth leaf-dip test on cabbage leaves; details: cabbage leaves dipped, 3rd instar larvae, 72 hours after treatment, read-out: mortality in comparison with untreated controls
Procedure: The active compound was dissolved at the desired concentration in a mixture of 1:1 (vol:vol) distilled water: acetone. Surfactant (Kinetic HV) was added at a rate of 0.01% (vol/vol). The test solution was prepared on the day of use.
Leaves of cabbage were dipped in test solution and air-dried. Treated leaves were placed in petri dishes lined with moist filter paper and inoculated with ten 3rd instar larvae. Mortality was recorded 72 hours after treatment. Feeding damages were also recorded using a scale of 0-100%.

[4] = test system: Green Peach Aphid (Myzus persicae); test: Green peach aphid systemic test, artificial diet under membrane in 96-well microtiter plates; details: 72 h, adult aphids on treated artificial diet, 3 days, read-out: mortality in comparison with untreated controls
Text: For evaluating control of green peach aphid (Myzus persicae) through systemic means, the test unit consisted of 96-well-microtiter plates containing liquid artificial diet under an artificial mem brane.
The compounds were formulated using a solution containing 75% v/v water and 25% v/v DMSO. Different concentrations of formulated compounds were pipetted into the aphid diet, using a custom built pipetter, at two replications.
After application, 5 - 8 adult aphids were placed on the artificial membrane inside the microtiter plate wells. The aphids were then allowed to suck on the treated aphid diet and incubated at about 23 ± 1°C and about 50 ± 5 % relative humidity for 3 days. Aphid mortality and fecundity was then visually assessed.

[5] = test system: Orchid thrips (Dichromothrips corbetti); test: Orchid thrips floral-immersion test; details: adult thrips on dipped orchid petals, 72 hours after treatment, read-out: mortality in comparison with untreated controls
Procedure: Dichromothrips corbetti adults used for bioassay were obtained from a colony maintained continuously under laboratory conditions. For testing purposes, the test compound is diluted in a 1:1 mixture of acetone:water (vol:vol), plus Kinetic HV at a rate of 0.01% v/v.
Thrips control potency of each compound was evaluated by using a floral-immersion technique. All petals of individual, intact orchid flowers were dipped into treatment solution and allowed to dry in Petri dishes. Treated petals were placed into individual re-sealable plastic along with about 20 adult thrips. All test arenas were held under continuous light and a temperature of about 28°C for duration of the assay. After 3 days, the numbers of live thrips were counted on each petal. The percent mortality was recorded 72 hours after treatment.

[6] = test system: Boll weevil (Anthonomus grandis); test: Boll weevil test, insect diet with eggs in 96-well microtiter plates; details: 120 h, egg and larval mortality, 5 days, read-out: mortality in comparison with untreated controls
Procedure: For evaluating control of boll weevil (Anthonomus grandis), the test unit consisted of 96-well-microtiter plates containing an insect diet and 5-10 A. grandis eggs.
The compounds were formulated using a solution containing 75% v/v water and 25% v/v DMSO. Different concentrations of formulated compounds were sprayed onto the insect diet at 5 µl, using a custom-built micro atomizer, at two replications.
After application, microtiter plates were incubated at about 25 ± 1°C and about 75 ± 5 % relative humidity for 5 days. Egg and larval mortality was then visually assessed.

CC(=NO)n1ncnc1C(C)NC(=O)c1cc(C(F)(F)F)cc(C(F)(F)F)c1 (stereo not shown) [I-1, N-[1-[2-[N-hydroxy-C-methyl-carbonimidoyl]-1,2,4-triazol-3-yl]ethyl]-3,5-bis(trifluoromethyl)benzamide]
≥ 75%: mortality at 2500 ppm [1] | mortality at 2500 ppm [2] | mortality at 300 ppm [3] | mortality at 2500 ppm [4]

CO/N=C(/C)n1ncnc1C(C)NC(=O)c1cc(C(F)(F)F)cc(C(F)(F)F)c1 (stereo not shown) [I-3, N-[1-[2-[(Z)-N-methoxy-C-methyl-carbonimidoyl]-1,2,4-triazol-3-yl]ethyl]-3,5-bis(trifluoromethyl)benzamide]
≥ 75%: mortality at 300 ppm [5] | mortality at 2500 ppm [1] | mortality at 2500 ppm [2] | mortality at 300 ppm [3] | mortality at 2500 ppm [4] | mortality at 2500 ppm [6]

CO/N=C(\C)n1ncnc1C(C)NC(=O)c1cc(C(F)(F)F)cc(C(F)(F)F)c1 (stereo not shown) [I-4, N-[1-[2-[(E)-N-methoxy-C-methyl-carbonimidoyl]-1,2,4-triazol-3-yl]ethyl]-3,5-bis(trifluoromethyl)benzamide]
≥ 75%: mortality at 300 ppm [5] | mortality at 2500 ppm [1] | mortality at 2500 ppm [2] | mortality at 300 ppm [3] | mortality at 2500 ppm [4] | mortality at 2500 ppm [6]
